Values of other authors as cited in patent US20050119124A1, “Phosphorus and potassium fertilizer for all forms of perennial trees, vines and annual crops” (priority 1999, published 2005).

Details: 18C

OP(O)O [Phosphorous acid, phosphorous acid]
pK, first acid group: 2.00 | pK, second acid group: 6.59
